Molecules are shown by their SMILES.

This assay has as its system Panc 05.04 cancer cells (SF3B1^MUT) vs BXPC3, HPAFII, PANC0403, PANC1005, CFPAC1 and MIAPACA2. Briefly: Cellular viability assay, mutant vs wild-type SF3B1 pancreatic cancer cell lines. The class given is cell-based. To be noted: 72 hours at 37° C., 384-well plate. As to the method:
To assess the viability of Panc 05.04 cancer cells (SF3B1^MUT) (Q699H and K700E mutations in SF3B1) in the presence of Compound 2, cells were seeded at 750 cells per well in a 384-well plate and treated with Compound 2 at the concentrations indicated in FIG. 4 for 72 hours at 37° C. The relative number of viable or apoptotic cells were measured by luminescence using CELLTITER-GLO® luminescent Cell Viability Assay (Promega).

For the molecule `C/C(=C\C=C\[C@@H](C)c1ccccn1)[C@H]1OC(=O)C[C@H](O)CC[C@@](C)(O)[C@@H](OC(=O)N2CCN(C)CC2)/C=C/[C@@H]1C` [Compound 2, (2S,3 S,6S,7R,10R,E)-7,10-dihydroxy-3,7-dimethyl-12-oxo-2-((R,2E,4E)-6-(pyridin-2-yl)hepta-2,4-dien-2-yl)oxacyclododec-4-en-6-yl 4-methylpiperazine-1-carboxylate], the “differential cellular lethality, mutant vs wild-type SF3B1 pancreatic cancer cell lines” value is recorded as “differential cellular lethality in the mutant SF3B1 pancreatic cancer cell line over wild-type SF3B1 pancreatic cancer cell lines”.

The values above are taken from US9481669B2, “Pladienolide pyridine compounds and methods of use” (Eisai R&D Management Co., Ltd., priority 2014, dated 2016).
